Laboratory results: patent US4416884A, “Piperazinylbenzoheterocyclic compounds” (Otsuka Pharmaceutical Co., Ltd., priority 1978, dated 1983)
Values after ≈ are worked out from the molar mass of the structure shown. Like-named read-outs stand apart in the source and are kept apart here.

Key:
Type in all cases: cell-based
[1] = tested on: Test Organism 21 (Bacillus subtilis PCI 219); experiment: influence of the addition of horse serum on the MIC
Shigella Sonnei EW 33 = experiment: antimicrobial activity, serial dilution method on agar plate; settings: read-out: Minimum Inhibitory Concentration
Method in brief: (§1)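 Two inoculum levels used: 1×10^8 cells/ml (O.D. 660 mμ = 0.07–0.16) and a diluted 1×10^6 cells/ml preparation. Minimum inhibitory concentrations in mcg/ml read from serial dilution on Heart Infusion agar plates.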

[2] = tested on: Yersinia enterocolitica 0-3; experiment: as above
Method in brief: as §1

Hafnia alvei IFO 3731 = experiment: as above; settings: read-out: Minimum Inhibitory Concentration
Method in brief: as §1

[3] = tested on: Streptococcus pneumoniae Type I; experiment: as above
Method in brief: as §1

Klebsiella pneumoniae = experiment: as above
Method in brief: as §1

[4] = tested on: Staphylococcus aureus FDA 209 P; experiment: as above
Method in brief: as §1

[5] = tested on: Pseudomonas aeruginosa E-2; experiment: as above
Method in brief: as §1

Escherichia Coli NIHJ = experiment: as above; settings: read-out: Minimum Inhibitory Concentration
Method in brief: as §1

[6] = tested on: Serattia marcescens IFO 12648; experiment: as above
Method in brief: as §1

[7] = tested on: Proteus morganii IID Kono; experiment: as above; settings: Morganella morganii
Method in brief: as §1

[8] = tested on: Salmonella typhi 0-901 (NCTC 8393); experiment: as above; settings: Salmonella enterica
Method in brief: as §1

[9] = tested on: Pseudomonas aeruginosa ATCC 10145; experiment: as above
Method in brief: as §1

[10] = tested on: Pseudomonas putida IFO 13696; experiment: as above; settings: read-out: Minimum Inhibitory Concentration
Method in brief: as §1

[11] = tested on: Test Organism 2 (Escherichia Coli NIHJ JC-2 (IFO 12734)); experiment: influence of the addition of horse serum on the MIC
[12] = tested on: Test Organism 27 (Streptococcus pneumoniae Type III); experiment: as above
[13] = tested on: Pseudomonas fluorescens IFO 12180; experiment: antimicrobial activity on bacteria which cause infectious diseases in fish
Experimental: (§2) The antimicrobial activity of the following test compounds on various test organisms listed below was determined by the serial dilution method on agar plate (Heart Infusion agar produced by Difco Co.) (see CHEMOTHERAPY 22, pp. 1126-1128 (1974)), and the minimum inhibitory concentrations (mcg/ml) obtained are shown in Table 1 below.
(§3) A sample of each test organism was prepared so that the population of the organism was 1×10^8 cells/ml (O.D. 660 mμ=0.07 to 0.16) and 1×10^6 cells/ml (which was obtained by diluting the above 1×10^8 cells/ml preparation).
(§4) In the same manner as above, the antimicrobial activity of the following compounds on various test organisms which cause infectious diseases in fish was determined.

[14] = tested on: Pseudomonas fluorescens IFO 12568; experiment: as above
Experimental: as §2, §3, §4

[15] = tested on: Aeromonas salmonicida IFO 12659; experiment: as above
Experimental: as §2, §3, §4

[16] = tested on: Aeromonas salmonicida IFO 12718; experiment: as above
Experimental: as §2, §3, §4

[17] = tested on: Vibrio anguillarum IFO 13266; experiment: as above
Experimental: as §2, §3, §4

[18] = tested on: Vibrio anguillarum IFO 12710; experiment: as above
Experimental: as §2, §3, §4

[19] = tested on: Aeromonas hydrophila IFO 12658; experiment: as above
Experimental: as §2, §3, §4

[20] = tested on: Aeromonas hydrophila IFO 12981; experiment: as above
Experimental: as §2, §3, §4

[21] = horse serum 0%, inoculum 10^6, read-out: Minimum Inhibitory Concentration
[22] = horse serum 0%, inoculum 10^8, read-out: Minimum Inhibitory Concentration
[23] = horse serum 10%, inoculum 10^6, read-out: Minimum Inhibitory Concentration
[24] = horse serum 10%, inoculum 10^8, read-out: Minimum Inhibitory Concentration
[25] = horse serum 20%, inoculum 10^6, read-out: Minimum Inhibitory Concentration
[26] = horse serum 20%, inoculum 10^8, read-out: Minimum Inhibitory Concentration
[27] = horse serum 40%, inoculum 10^6, read-out: Minimum Inhibitory Concentration
[28] = horse serum 40%, inoculum 10^8, read-out: Minimum Inhibitory Concentration
[29] = IFO3731, inoculum 1 × 10^6 cells/ml
[30] = IFO3731, inoculum 1 × 10^8 cells/ml
[31] = inoculum 1 × 10^8 cells/ml, read-out: Minimum Inhibitory Concentration
[32] = inoculum 1 × 10^6 cells/ml, read-out: Minimum Inhibitory Concentration
[33] = read-out: Minimum Inhibitory Concentration, inoculum 1 × 10^6 cells/ml
[34] = read-out: Minimum Inhibitory Concentration, inoculum 1 × 10^8 cells/ml
[35] = IFO13696, inoculum 1 × 10^6 cells/ml
[36] = IFO13696, inoculum 1 × 10^8 cells/ml

CC1CCc2cc(F)cc3c(=O)c(C(=O)O)cn1c23 (stereo not shown) [F]
MIC [1, 21]: 0.8 µg/mL (≈ 3.06 µM) | MIC [1, 22]: 0.8 µg/mL (≈ 3.06 µM) | MIC [1, 23]: 0.8 µg/mL (≈ 3.06 µM) | MIC [1, 24]: 0.8 µg/mL (≈ 3.06 µM) | MIC [1, 25]: 0.8 µg/mL (≈ 3.06 µM) | MIC [1, 26]: 0.8 µg/mL (≈ 3.06 µM) | MIC [1, 27]: 1.6 µg/mL (≈ 6.12 µM) | MIC [1, 28]: 1.6 µg/mL (≈ 6.12 µM) | MIC (Shigella Sonnei EW 33; inoculum 1 × 10^6 cells/ml): 0.8 µg/mL (≈ 3.06 µM) | MIC (Shigella Sonnei EW 33; inoculum 1 × 10^8 cells/ml): 0.8 µg/mL (≈ 3.06 µM) | MIC ([2]; Yersinia enterocolitica, 03, inoculum 1 × 10^6 cells/ml, read-out: Minimum Inhibitory Concentration): 0.4 µg/mL (≈ 1.53 µM) | MIC ([2]; Yersinia enterocolitica, 03, inoculum 1 × 10^8 cells/ml, read-out: Minimum Inhibitory Concentration): 0.8 µg/mL (≈ 3.06 µM) | MIC (Hafnia alvei IFO 3731; [29]): 125 µg/mL (≈ 478 µM) | MIC (Hafnia alvei IFO 3731; [30]): 25 µg/mL (≈ 95.7 µM) | MIC [3, 31]: > 100 µg/mL | MIC (Klebsiella pneumoniae; [32]): 0.4 µg/mL (≈ 1.53 µM) | MIC (Klebsiella pneumoniae; [31]): 0.8 µg/mL (≈ 3.06 µM) | MIC ([4]; FDA209, inoculum 1 × 10^6 cells/ml, read-out: Minimum Inhibitory Concentration): 1.6 µg/mL (≈ 6.12 µM) | MIC ([4]; FDA209, inoculum 1 × 10^8 cells/ml, read-out: Minimum Inhibitory Concentration): 3.1 µg/mL (≈ 11.9 µM) | MIC ([5]; E2, inoculum 1 × 10^6 cells/ml, read-out: Minimum Inhibitory Concentration): 50 µg/mL (≈ 191 µM) | MIC ([5]; E2, inoculum 1 × 10^8 cells/ml, read-out: Minimum Inhibitory Concentration): 50 µg/mL (≈ 191 µM) | MIC (Escherichia Coli NIHJ; inoculum 1 × 10^6 cells/ml): 0.1 µg/mL (≈ 0.383 µM) | MIC (Escherichia Coli NIHJ; inoculum 1 × 10^8 cells/ml): 0.2 µg/mL (≈ 0.766 µM) | MIC [6, 32]: 0.4 µg/mL (≈ 1.53 µM) | MIC [6, 31]: 0.8 µg/mL (≈ 3.06 µM) | MIC [7, 32]: 0.4 µg/mL (≈ 1.53 µM) | MIC [7, 31]: 0.8 µg/mL (≈ 3.06 µM) | MIC [8, 33]: 0.2 µg/mL (≈ 0.766 µM) | MIC [8, 34]: 0.2 µg/mL (≈ 0.766 µM) | MIC ([9]; ATCC10145, inoculum 1 × 10^6 cells/ml, read-out: Minimum Inhibitory Concentration): 12.5 µg/mL (≈ 47.8 µM) | MIC ([9]; ATCC10145, inoculum 1 × 10^8 cells/ml, read-out: Minimum Inhibitory Concentration): 25 µg/mL (≈ 95.7 µM) | MIC [10, 35]: 125 µg/mL (≈ 478 µM) | MIC [10, 36]: 25 µg/mL (≈ 95.7 µM) | MIC [11, 21]: 0.8 µg/mL (≈ 3.06 µM) | MIC [11, 22]: 0.8 µg/mL (≈ 3.06 µM) | MIC [11, 23]: 0.8 µg/mL (≈ 3.06 µM) | MIC [11, 24]: 0.8 µg/mL (≈ 3.06 µM) | MIC [11, 25]: 0.8 µg/mL (≈ 3.06 µM) | MIC [11, 26]: 0.8 µg/mL (≈ 3.06 µM) | MIC [11, 27]: 1.6 µg/mL (≈ 6.12 µM) | MIC [11, 28]: 1.6 µg/mL (≈ 6.12 µM) | MIC [12, 21]: 50 µg/mL (≈ 191 µM) | MIC [12, 22]: 50 µg/mL (≈ 191 µM) | MIC [12, 23]: 50 µg/mL (≈ 191 µM) | MIC [12, 24]: > 50 µg/mL | MIC [12, 25]: 50 µg/mL (≈ 191 µM) | MIC [12, 26]: > 50 µg/mL | MIC [12, 27]: 50 µg/mL (≈ 191 µM) | MIC [12, 28]: > 50 µg/mL

CCn1cc(C(=O)O)c(=O)c2ccc(C)nc21 [E]
MIC (Shigella Sonnei EW 33; inoculum 1 × 10^6 cells/ml): 3.1 µg/mL (≈ 13.3 µM) | MIC (Shigella Sonnei EW 33; inoculum 1 × 10^8 cells/ml): 3.1 µg/mL (≈ 13.3 µM) | MIC ([2]; Yersinia enterocolitica, 03, read-out: Minimum Inhibitory Concentration, inoculum 1 × 10^6 cells/ml): 1.6 µg/mL (≈ 6.89 µM) | MIC ([2]; Yersinia enterocolitica, 03, read-out: Minimum Inhibitory Concentration, inoculum 1 × 10^8 cells/ml): 12.5 µg/mL (≈ 53.8 µM) | MIC (Hafnia alvei IFO 3731; [29]): 50 µg/mL (≈ 215 µM) | MIC (Hafnia alvei IFO 3731; [30]): 100 µg/mL (≈ 431 µM) | MIC [3, 33]: > 100 µg/mL | MIC [3, 34]: > 100 µg/mL | MIC (Klebsiella pneumoniae; [33]): 3.1 µg/mL (≈ 13.3 µM) | MIC (Klebsiella pneumoniae; [34]): 3.1 µg/mL (≈ 13.3 µM) | MIC ([4]; FDA209, read-out: Minimum Inhibitory Concentration, inoculum 1 × 10^6 cells/ml): 50 µg/mL (≈ 215 µM) | MIC ([4]; FDA209, read-out: Minimum Inhibitory Concentration, inoculum 1 × 10^8 cells/ml): 50 µg/mL (≈ 215 µM) | MIC ([5]; E2, read-out: Minimum Inhibitory Concentration, inoculum 1 × 10^6 cells/ml): > 100 µg/mL | MIC ([5]; E2, read-out: Minimum Inhibitory Concentration, inoculum 1 × 10^8 cells/ml): > 100 µg/mL | MIC (Escherichia Coli NIHJ; inoculum 1 × 10^6 cells/ml): 1.6 µg/mL (≈ 6.89 µM) | MIC (Escherichia Coli NIHJ; inoculum 1 × 10^8 cells/ml): 3.1 µg/mL (≈ 13.3 µM) | MIC [6, 33]: 3.1 µg/mL (≈ 13.3 µM) | MIC [6, 34]: 3.1 µg/mL (≈ 13.3 µM) | MIC [7, 33]: 3.1 µg/mL (≈ 13.3 µM) | MIC [7, 34]: 6.3 µg/mL (≈ 27.1 µM) | MIC [8, 33]: 3.1 µg/mL (≈ 13.3 µM) | MIC [8, 34]: 3.1 µg/mL (≈ 13.3 µM) | MIC ([9]; ATCC10145, read-out: Minimum Inhibitory Concentration, inoculum 1 × 10^6 cells/ml): > 100 µg/mL | MIC ([9]; ATCC10145, read-out: Minimum Inhibitory Concentration, inoculum 1 × 10^8 cells/ml): > 100 µg/mL | MIC [10, 35]: 50 µg/mL (≈ 215 µM) | MIC [10, 36]: 100 µg/mL (≈ 431 µM) | MIC ([13]; IFO12180, inoculum 10^6, read-out: Minimum Inhibitory Concentration): 50 µg/mL (≈ 215 µM) | MIC ([13]; IFO12180, inoculum 10^8, read-out: Minimum Inhibitory Concentration): > 50 µg/mL | MIC ([14]; IFO12568, inoculum 10^6, read-out: Minimum Inhibitory Concentration): 50 µg/mL (≈ 215 µM) | MIC ([14]; IFO12568, inoculum 10^8, read-out: Minimum Inhibitory Concentration): > 50 µg/mL | MIC ([15]; IFO12659, inoculum 10^6, read-out: Minimum Inhibitory Concentration): 0.8 µg/mL (≈ 3.44 µM) | MIC ([15]; IFO12659, inoculum 10^8, read-out: Minimum Inhibitory Concentration): 0.8 µg/mL (≈ 3.44 µM) | MIC ([16]; IFO12718, inoculum 10^6, read-out: Minimum Inhibitory Concentration): 0.8 µg/mL (≈ 3.44 µM) | MIC ([16]; IFO12718, inoculum 10^8, read-out: Minimum Inhibitory Concentration): 0.8 µg/mL (≈ 3.44 µM) | MIC ([17]; IFO13266, inoculum 10^6, read-out: Minimum Inhibitory Concentration): 0.8 µg/mL (≈ 3.44 µM) | MIC ([17]; IFO13266, inoculum 10^8, read-out: Minimum Inhibitory Concentration): 1.6 µg/mL (≈ 6.89 µM) | MIC ([18]; IFO12710, inoculum 10^6, read-out: Minimum Inhibitory Concentration): 0.8 µg/mL (≈ 3.44 µM) | MIC ([18]; IFO12710, inoculum 10^8, read-out: Minimum Inhibitory Concentration): 1.6 µg/mL (≈ 6.89 µM) | MIC ([19]; IFO12658, inoculum 10^6, read-out: Minimum Inhibitory Concentration): 0.8 µg/mL (≈ 3.44 µM) | MIC ([19]; IFO12658, inoculum 10^8, read-out: Minimum Inhibitory Concentration): 0.8 µg/mL (≈ 3.44 µM) | MIC ([20]; IFO12981, inoculum 10^6, read-out: Minimum Inhibitory Concentration): 0.2 µg/mL (≈ 0.861 µM) | MIC ([20]; IFO12981, inoculum 10^8, read-out: Minimum Inhibitory Concentration): 0.4 µg/mL (≈ 1.72 µM)
